In the case of `O=C(O)c1ccc(-c2nn(-c3ccccc3C(=O)O)c3ccc([N+](=O)[O-])cc23)cc1`, the melting point lay in the range of 348 to 350 °C.
Compound `CC(=O)OC1CCC2(CO)C(CCC3C4=CCC(OC(=O)C(C)(C)C)C4(C)CCC32)C1` (centres undefined) displayed a melting point of 133 to 134 °C.
Under `COc1ccc(-c2cc(=O)n(CC3CC3)nc2-c2ccc(OC)c(F)c2)cc1` stands 132 to 133 °C; under `CCOc1ccc2[nH]c(=O)n(-c3ccccn3)c2c1`, 205 °C; under `C[C@H](C#Cc1ccc(Cc2ccc3ccccc3c2)s1)N(O)C(N)=O`, 134 to 135 °C.
With `CC(C)(C)Cc1nc2cc(S(=O)(=O)c3ccccc3)ccc2n1CC1CC1`, the melting point was found to be 173 °C.
In turn, `CCOC(=O)c1cc(NCc2ccccc2)c(Nc2ccccc2)c(S(N)(=O)=O)c1` yielded a melting point of 160 to 161 °C.
Take `CCOC(=O)N1CCN(c2c(F)cc([N+](=O)[O-])c(F)c2CO)CC1`: the melting point is 147 to 149 °C.
In turn, `O=C(N[C@@H](Cc1ccccc1)C(=O)O)c1cnccn1` displayed a melting point of 166 to 169 °C.
`CC(C)(C)[Si](C)(C)N1C(=O)C[C@H]1CI`: the melting point was in the range of 71 to 72 °C.
Consider `CNC(=C[N+](=O)[O-])N1CC1`, for which the melting point fell in the range of 118 to 119 °C.
On to `COC(=O)c1c(C)nc(C)c(C(=O)OCC2CCCO2)c1-c1cccc(NC(C)=O)c1` (centres undefined), for which the melting point was 196 to 198 °C.
Turning to `O=C(O)CCC(=O)OCCc1ccccc1`, the melting point is 60 to 62 °C.
Turning to `CC(=O)c1cnc2c(c1)oc(=O)n2CCc1ccccn1`, the melting point lay within 138 to 140 °C.
Compound `COc1cc2c(cc1S(=O)(=O)Cl)CCN(C(C)=O)CC2` returned a melting point of 153 to 160 °C.
`O=C(NCc1ccc(Cl)cc1)c1cnc2cc(C#CCO)ccc2c1O` had a melting point of 218 to 220 °C.
For `COc1cc(C=O)cc(OC)c1OC1OC(CO)C(O)C(O)C1NC(C)=O` (centres undefined), the melting point lay in the range of 186 to 189 °C.
In turn, `Cc1nc(C(N)=O)c2n1-c1ccc([N+](=O)[O-])cc1C(c1ccccc1Cl)=NC2` displayed a melting point above 300 °C.
The result for `CSc1ccc(C)cc1S(=O)(=O)NC(C)(C)C` reads 119 to 121 °C.
Turning to `O=c1cc(CCl)nc2ccn(-c3ccccc3)n12`, the melting point is 194 to 196 °C.
In turn, `C=C(Br)c1cc(O)cc2nc(-c3ccc(O)cc3)oc12` returned a melting point of 228 to 230 °C.
In the case of `CCOc1ccc(C(=O)NC/C=C/c2ccccc2)cc1`, the melting point stood at 132 °C.
As to `ICc1nc(-c2ccc3c(c2)OCO3)c2cc3c(cc2n1)OCO3`, the melting point was 155 to 160 °C.
Compound `CN1CCOc2ccc(S(=O)(=O)Nc3ccc(CCl)cc3I)cc21` returned a melting point of 109 to 110 °C.
`COc1ccc(C2(C#N)CCC(=NO)CC2)cc1OC1CCCC1` (centres undefined) came in with a melting point of 50 to 53 °C.
As for `Cc1cc(C)c2cccc(OCc3c(Cl)ccc(S(=O)(=O)N4CCC[C@H]4C(=O)NCCCNC(=O)c4cccc(C(N)=NO)c4)c3Cl)c2n1`, the melting point fell in the range of 108 to 110 °C.
On to `Cc1cc(-c2ccc(S(N)(=O)=O)cc2)n(-c2ccc(Cl)cc2)c1`, for which the melting point lay within 171 to 173 °C.
Compound `CCOC(=O)[C@H](CSCc1ccc(C)c(C)c1)NC(=O)C(CSC(C)=O)Cc1ccccc1` (some centres undefined) gave a melting point of 51 to 55 °C.
Turning to `Cc1c(NC(=O)c2ccc(OCC3CCOC3)cc2)ccc2cc(CNCC(C)C)cnc12` (centres undefined), the melting point was determined as 132 °C.
With `N#Cc1ccc(CBr)c([N+](=O)[O-])c1`, the melting point was 85 to 89 °C.
The compound `Cc1cc(CN2CCNC2=C[N+](=O)[O-])on1` yielded a melting point of 168 to 170 °C.
Turning to `COc1ccc2c(c1OC)CN(C=O)CCc1cc(OCc3ccccc3)ccc1CC2`, the melting point fell in the range of 140 to 141 °C.
`OC1CSC(Oc2cncc(-c3ccc(F)c(F)c3)c2)C(O)C1O` (centres undefined) registered a melting point of 198 to 203 °C.
As for `CC(O)c1cc2c(c(Cl)n1)OCC2C` (centres undefined), the melting point was in the range of 67 to 68 °C.
The result for `CNC(=O)[C@@H]1C[C@@H](OC)CN1S(=O)(=O)c1ccc(Cl)c(CBr)c1Cl` reads 64 °C.
Compound `NC(=O)c1sc2nccc(OC3CCCCCC3)c2c1N` gave a melting point of 179 to 180 °C.
Regarding `C[C@@H]1CN(CC(=O)Nc2nccc3ccccc23)C[C@H](C)N1c1ncnc2sccc12`, the melting point is 206 to 207 °C.
With `CN(C)C(=O)C(=O)c1ccc(Cl)cc1C(=O)c1ccccc1`, the melting point lay in the range of 88 to 90 °C.
`C=C1CCC2C3Cc4ccc(O)cc4C2(CCN3CC2CC2)C1` (centres undefined) came in with a melting point of 220 to 223 °C.
With `CNc1c(N)c(C)nn1C`, the melting point came out at 87 °C.
Under `CC(=O)N1c2ccccc2-c2c([N+](=O)[O-])cnn2C1(C)C` stands 182 to 183 °C; under `C[C@H](COc1ccccc1)Nc1nc(F)nc2c1ncn2[C@@H]1O[C@H](CO)[C@@H](O)[C@H]1O`, 148 to 150 °C; under `NC(=O)CCc1ccc(-c2nc(=O)c3ccccc3s2)nc1`, 248 °C.
For `COC(=O)CC1CC(c2cccc(C3(c4ccc(OC(F)F)cc4)N=C(N)N(C)C3=O)c2)C1` (centres undefined), the melting point fell in the range of 68 to 70 °C.
In turn, `CS(=O)c1ncc2cc(Cl)c(N)nc2n1` (centres undefined) returned a melting point of 260 to 262 °C.
`COc1cc2c(cc1OC)C(Cc1cc(I)c(N)c(I)c1)NCC2` (centres undefined) gave a melting point of 169 to 171 °C.
As to `COc1ccc2c(NCCN3CCOCC3)noc2c1`, the melting point was 85 to 86 °C.
The result for `CC(C)(C)OC(=O)N[C@@H](Cc1ccc(O)c(O)c1)C(=O)O` reads 148 °C; that for `N#CC(C(=O)Nc1ccccc1)C(=O)c1nn(-c2ccccc2)c2c1CSc1ccc(NC(=O)CN)cc1-2` (centres undefined), 218 to 221 °C.
Under `CCCCOc1ccc2nc(C(=O)O)c(OCc3ccccc3)cc2c1` stands 108 to 110 °C.
Regarding `Cc1c(C)c(N2C(=O)c3cc(Cl)c(Cl)cc3C2=O)c(C)c2c1OC(C)(C)C2c1ccc(C(C)C)cc1` (centres undefined), the melting point was in the range of 237 to 239 °C.
`COC1(c2cccc(Sc3ccc4c(ccc(=O)n4CC(F)(F)F)c3)c2)CCOCC1` showed a melting point of 138 to 140 °C.
Regarding `Cc1oc(-c2cccc(C(F)(F)F)c2)nc1COc1cccc(CN(O)C(N)=O)c1`, the melting point is 160 to 161 °C.
For `OC(c1ccc(Cl)cc1)c1cccc(Br)n1` (centres undefined), the melting point was in the range of 64.5 to 65 °C.
Under `CCn1c(=O)oc2cc([N+](=O)[O-])cc(F)c21` stands 121 to 122 °C; under `CCOC(=O)c1cn(CCc2cccc(F)c2)c2cc(C3CC3)nn2c1=O`, 160 to 165 °C; under `O=C(NC(=O)c1cccc(C(F)(F)F)c1)NC1CN2CCC1CC2` (centres undefined), 197 to 200 °C.
Under `CCCCCCCCCCC1(C)OCC(C=Cc2ccc(-c3ccccc3)cc2)OO1` (centres undefined) stands 86 to 90 °C.
In turn, `CCCn1cc(C(=O)O)c(=O)c2cnc(N3CCNCC3)nc21` showed a melting point of 259 to 261 °C.
The result for `CCCCc1oc2ccccc2c1C(=O)Nc1ccc2cc(OCC(=O)OC)ccc2c1` reads 131 to 133 °C; that for `CN(C)Cc1ccc(CSCCNc2ncc(Cc3cccnc3)c(=O)[nH]2)cc1`, 124 to 126 °C; that for `CCOc1ccc(OCc2ccc(OCc3nc(-c4ccccc4)oc3C)cc2)cc1CC(=O)OC`, 82 to 83 °C.
Under `CC(=O)OCCNc1nnc(-c2ccccc2)cc1C` stands 127 °C; under `NC(=NO)c1ncn2c1[C@@H]1CCN1C(=O)c1c(Br)cccc1-2`, 265 to 266 °C.

The term melting point denotes the temperature, or range, at which the solid turns liquid.

Source of the values: a melting point compilation (Tetko et al.; mined from patent text by program, amines drawn as free bases though some values may be those of a salt).
